The values below come from patent publication US20160235778A1, “COMPOSITIONS CONTAINING PUFA, URIDINE AND CHOLINE AND METHODS OF USE THEREOF” (MASSACHUSETTS INSTITUTE OF TECHNOLOGY, priority 2014, published 2016).

One assay concerns brain phospholipids. The assay can be described thus: Brain phospholipid levels in gerbils given UMP diet and/or PUFA by gavage. It counts as in vivo, gerbil. Set-up: PC / PE / PS / PI: unit not given here. As to the method:
Control standard diet (Table 4) consisted of Teklad Global 16% protein rodent diet (Harlan Teklad, Madison, Wis.), which contained 0.1% choline chloride (CC), corresponding to a daily dose of 50 mg/kg/day. UMP was provided as 0.5% UMP·2Na^+ weight/weight, added to the control diet, also prepared by Harlan Teklad, corresponding to 240 mg/kg/day UMP. DHA was administered as 300 mg/kg/day in 200 microliter (mcL)/day 5% Arabic Gum solution, while groups not receiving DHA were administered vehicle (5% Arabic Gum) alone. DHA was provided by Nu-Chek Prep (Elysian, MN) and UMP by Numico (Wagenigen, NL).
Gerbils were anesthetized with ketamine and xylazine (80 and 10 mg/kg bwt, i.p.) and sacrificed by immersing the head into liquid nitrogen for 2 min, followed by decapitation. Brains were immediately and quickly (30 seconds) removed using a bone rongeur and stored at −80° C.
Frozen brain hemispheres were weighed and homogenized in 100 volumes of ice-cold deionized water using a tissue degrader (Polytron PT 10-35, Kinematica AG, Switzerland), then analyzed as described in Example 1.
Protein in whole brain homogenate sample was measured for using bicinchoninic acid reagent (Perkin Elmer, Norwalk, Conn., USA). DNA was measured by measuring 460 nm emission of samples on a fluorometer in the presence of bisbenzimidizole, a fluorescent dye known as Hoechst H 33258 (American Hoechst Corporation), which has an excitation maximum at 356 nm and an emission maximum of 458 when bound to DNA.
Male gerbils weighing 80-100 g were divided into 4 groups of 8 gerbils and administered the supplements depicted in Table 1:
Adult gerbils were administered control standard diet (Table 4) with our without 0.5% UMP and/or 300 mg/kg/day DHA, EPA, or AA. Groups not receiving DHA were administered vehicle (5% Arabic Gum) alone.

Another assay has as its system brain CDP-choline. The assay can be described thus: Brain CDP-choline and CDP-ethanolamine levels (HPLC). It counts as in vivo. The following applies: gerbil. As to the method:
FIG. 5A-B. Effects of DHA on brain CDP-choline levels (FIG. 5A) and CDP-ethanolamine levels (FIG. 5B). Groups of 8 gerbils received either a control or a UMP-containing diet, and, by gavage, DHA (in a vehicle of 5% gum Arabic solution) or 5% gum Arabic solution alone for 28 days. On the 29th day brains were harvested and assayed for CDP-choline. Data are presented as means±SEM. Statistical analysis was performed using one- or two-way ANOVA followed by Tukey test. a: P<0.05 when compared with the values for control diet plus vehicle group; b: P<0.05 when compared with values for UMP diet plus vehicle group.
Aliquots (2 ml) of the upper (aqueous) phase were dried under a vacuum, reconstituted, and injected into an HPLC. The dried samples were reconstituted in 100-200 μl water and were analyzed by HPLC on an anion exchange column (Alltech Hypersil APS-2, […], 250×4.6 mm). CDP-choline was eluted with a linear gradient of buffers A (H3PO4, 1.75 mM, pH 2.9) and B (NaH2PO2, 500 mM, pH 4.5) from 0 to 100% B over period of 30 min. With this system, CDP-choline was resolved from closely co-eluting substances such as UMP in an isocratic system over a period of 40 min. The retention time for CDP-choline was 9.5 min. The column was washed with buffer B at the end of each experiment and every several days to remove retained nucleotides. Individual nucleotide peaks were detected by UV absorption at 280 nm and were identified by comparison with the positions of authentic standards, as well as by the addition of nucleotide standards to samples.

For assay [1], the system named is hippocampal dendritic spines. The assay can be described thus: Hippocampal dendritic spine numbers in pups of treated pregnant and nursing mothers. It counts as in vivo. Particulars: rat pups, mothers treated 10 days before parturition and 20 days while nursing. From the text: In another study, pregnant rats were allowed to consume ad libitum, for 10 days before parturition and 20 days while nursing, either a choline-containing control diet or this diet supplemented with uridine as UMP; half of each group also received DHA or its diluent daily, by gavage. Pups were then sacrificed and brain slices were examined to determine numbers of hippocampal dendritic spines.

Another assay deals with SHSY-5Y cells. In words: 14C-choline incorporation into phospholipids in SHSY-5Y cells. Format: cell-based, human. As to the method: SHSY-5Y cells were grown to near confluency in DMEM+10% FBS in 35 mm dishes. Cells were incubated for 18 hr in serum-free DMEM+1% FBS containing 30 μM choline+/−10 μM of DHA, arachidonic acid, or palmitic acid. Cells were then labeled, and labeled phospholipids were quantified as described for Example 1.
DHA was dissolved in ethanol to a […] concentration and frozen in 10 microliter aliquots at −80° C. For each experiment, one aliquot was diluted in ethanol to 10 micromolar; the volume giving the desired final solution in incubation medium was mixed with an equal volume of BSA solution (1 gm/ml).
The effect of arachidonic acid on phospholipid synthesis in SHSY-5Y cells was further characterized as described for omega-3 fatty acids and PC-12 cells in Example 2. […] Thus, omega-6 fatty acids stimulate synthesis of a variety of phospholipids in a dose-dependent manner.

Setting [2] is: gerbil brain, 3 weeks, 0.5% UMP and/or 300 mg/kg/day PUFA, Table 6.
The mark [3] stands for this setting: gerbil brain, 4 weeks, normalized to DNA levels, mean +/- SEM.
Where [4] appears, read: gerbil brain, 4 weeks, normalized to protein levels, mean +/- SEM.
Where [5] appears, read: gerbil brain, Table 5 part B, One week.
Where [6] appears, read: gerbil brain, Table 5 part B, Three weeks.
Setting [7] is: gerbil, Table 5A study, vs control.

Consider `O=c1ccn([C@@H]2O[C@H](COP(=O)(O)O)[C@@H](O)[C@H]2O)c(=O)[nH]1` [UMP, uridine monophosphate], for which, in the assay on brain phospholipids (setting [2]), the PC is on record as 131 ± 2, the PE is recorded as 70 ± 1, the PI was 16 ± 1 and the PS is listed as 29 ± 1. Also, in the assay on brain phospholipids (setting [2]), the SM is 22 ± 1 and the “Total PL” value is recorded as 332 ± 5. In the assay with brain phospholipids (setting [3]), this molecule displayed a PC of 368 ± 10, a PE of 195 ± 9, a PI of 78 ± 6 and a PS of 86 ± 7. In addition, in the assay on brain phospholipids (setting [3]), the SM is recorded as 111 ± 4 and the “Total PL” value worked out at 878 ± 18. In the assay with brain phospholipids (setting [4]), this molecule gave a PC of 171 ± 8, a PE of 84 ± 8, a PI of 31 ± 2 and a PS of 35 ± 3. In the assay with brain phospholipids (setting [4]), the SM is 52 ± 5 and the “Total PL” value is 367 ± 22. For the same molecule, the “increase in levels of total phospholipids” value in the assay on brain phospholipids (gerbil brain, 4 weeks, vs control group) was found to be 5%. In the assay on brain phospholipids (gerbil brain, Table 5 part A), this molecule displayed a PtdCho of 171 ± 8 nmol/mg prt, a PtdEtn of 64 ± 8 nmol/mg prt, a PtdIns of 31 ± 2 nmol/mg prt and a PtdSer of 35 ± 3 nmol/mg prt. For the same molecule, in the assay with brain phospholipids (gerbil brain, Table 5 part A), the SM was determined as 52 ± 5 nmol/mg prt and the “Total PL” value was found to be 367 ± 22 nmol/mg prt. Moreover, in the assay with brain phospholipids (setting [5]), the PtdCho is listed as 154 ± 6 nmol/mg prt, the PtdEtn was found to be 63 ± 4 nmol/mg prt, the PtdIns is 20 ± 4 nmol/mg prt and the PtdSer is reported as 39 ± 1 nmol/mg prt. In the assay with brain phospholipids (setting [5]), the SM was found to be 49 ± 3 nmol/mg prt and the “Total PL” value amounted to 390 ± 21 nmol/mg prt. In the assay with brain phospholipids (setting [6]), this molecule returned a PtdCho of 199 ± 5 nmol/mg prt, a PtdEtn of 87 ± 4 nmol/mg prt, a PtdIns of 25 ± 1 nmol/mg prt and a PtdSer of 42 ± 2 nmol/mg prt. Also, in the assay with brain phospholipids (setting [6]), the SM is 70 ± 4 nmol/mg prt and the “Total PL” value came to 479 ± 6 nmol/mg prt. Also, the “effect on brain phospholipids after 1 week of treatment” value in the assay with brain phospholipids (gerbil, 1 week) is listed as “no significant effects”. For the same molecule, in the assay with brain phospholipids (setting [7]), the “increase in brain level of PC” value was 13%, the “increase in brain level of PE” value stood at 29% and the “increase in brain level of PI” value is reported as 48%. In the assay on brain phospholipids (gerbil, treatment for 3 weeks), the “increases in brain phospholipids, in words” value was “smaller but still significant increases”. Moreover, the “brain CDP-choline levels, in words” value in the assay with brain CDP-choline (FIG. 5A) is recorded as “decreased”. The “brain CDP-ethanolamine levels, in words” value in the assay on brain CDP-choline (FIG. 5B) was “decreased”. In addition, in assay [1], the “Increase over control (%)” value stood at 28% and the Number of spines worked out at 68.

In the assay with brain phospholipids (setting [2]), `CCC=CCC=CCC=CCC=CCC=CCCCC(=O)O` [EPA, 5,8,11,14,17-eicosapentaenoic acid] yielded a PC of 125 ± 8, a PE of 76 ± 4, a PI of 22 ± 2 and a PS of 31 ± 1. For the same molecule, in the assay on brain phospholipids (setting [2]), the SM is on record as 26 ± 3 and the “Total PL” value was 347 ± 19. Further, in the assay on brain phospholipids (gerbil, 3 weeks), the “brain phospholipid levels, in words” value is “increased phospholipid levels”.

With `CCCCCC=CCC=CCC=CCC=CCCCC(=O)O` [arachidonic acid, 5,8,11,14-eicosatetraenoic acid], in the assay with SHSY-5Y cells (18 h with 10 μM fatty acid, FIG. 3A), the phospholipid synthesis result is “enhanced”. Moreover, in the assay on SHSY-5Y cells (range of dosages, dose-dependent, FIG. 3B), the “synthesis of total phospholipids, PC and phosphatidylethanolamine” value is “increased synthesis”. The “brain phospholipid levels, in words” value with brain phospholipids (gerbil, 3 weeks) is listed as “increased phospholipid levels”.
